Source: publication PMC6214985, “Potassium usnate, a water-soluble usnic acid salt, shows enhanced bioavailability and inhibits invasion and metastasis in colorectal cancer” (Scientific Reports, 2018)
Where “and” joins values, the source holds several entries; their conditions need not be identical. Equal entries are not always repeated.

Columns and labels:
[1] = system: N-cadherin, Snail, Twist, Slug, and ZEB2 mRNA in Caco2 cells; assay: qRT-PCR of EMT markers in Caco2 cells; format: cell-based, human; settings: 5 μM
Experimental: Quantitative RT-PCR (qRT-PCR) was performed as previously described. Briefly, total RNA ([…]) isolated from UA- or KU-treated Caco2 cells using RNAiso Plus (TaKaRa, Otsu, Shiga 520–2193, Japan) was used to synthesize cDNA using a M-MLV reverse transcriptase kit (Invitrogen, Carlsbad, CA, USA) and SYBR green (Enzynomics, Seoul, Korea). The primers used for real-time PCR were as follows: E-cadherin (forward) 5′-[…]-3′ and (reverse) 5′-[…]-3′; N-cadherin (forward) 5′-[…]-3′ and (reverse) 5′-[…]-3′; Snail (forward) 5′-[…]-3′ and (reverse) 5′-tgggagacacatcggtcga-3′; Twist (forward) 5′-cgggagtccgcagtctta-3′ and (reverse) 5′-[…]-3′; Slug (forward) 5′-[…]-3′ and (reverse) 5′-[…]-3′; ZEB1(forward) 5′-atgacacaggaaaggaagg-3′ and (reverse) 5′-agcagtgtcttgttgtag-3′; ZEB2 (forward) 5′-caagaggcgcaaacaagcc-3′ and (reverse) 5′-[…]-3′; CAPN1 (forward) 5′-[…]-3′ and (reverse) 5′-[…]-3′; CDC42 (forward) 5′-[…]-3′ and (reverse) 5′-[…]-3′; CFL1 (forward) 5′-caaggatgccatcaagaa-3′ and (reverse) 5′-atccttagcctcctcgta-3′; IGF1 (forward) 5′-[…]-3′ and (reverse) 5′-[…]-3′; WASF1 (forward) 5′-[…]-3′ and (reverse) 5′-[…]-3′; WASL (forward) 5′-[…]-3′ and (reverse) 5′-[…]-3′; and GAPDH (forward) 5′-[…]-3′ and (reverse) 5′-[…]-3′. qRT-PCR reactions and analyses were performed using CFX (Bio-Rad, Hercules, CA, USA).

[2] = Usnate distribution by LC-MS/MS after oral administration in CT26 syngeneic mouse tumor xenograft model; format: in vivo; settings: 30 mg/kg oral, 16 h after dosing; CT26 xenograft mice
Experimental: Stock solutions (10 mM) of UA or KU were prepared by dissolution in DMSO. Stock standard solutions were stored at −20 °C. A working standard solution was prepared by dilution of the stock standard solution with a mixture of acetonitrile-water (1:1, v/v). The working standard solution was serially diluted to prepare a concentration series of 0.975, 3.9, 15.6, 62.5, 250, 1000, and 4000 nM in 50% acetonitrile.
Skin tumor xenografts were established using CT26 cells. After 7 days of inoculation and gross tumor formation, UA or KU at 30 mg/kg was administered orally, and tumor, liver, and plasma samples were collected after 16 h (n = 9 each). Mouse tumor and liver samples were homogenized in four volumes of ice-cold deionized water. Plasma and homogenized tissue samples were prepared for analysis in a 96-well cluster tube plate by protein precipitation. A volume of 30 µL of each sample was transferred to eight-well tube strips placed in an 8 × 12 rack (VWR, Emeryville, CA, USA). Four volumes of ice-cold extraction solution (acetonitrile) containing 4-methylumbelliferone (4-MUF, internal standard) were added and vortexed for 10 min. After sonication for 30 min, samples were placed on ice for 1 h. The 96-well cluster tube plate was centrifuged at 1000 × g for 10 min, and the supernatant was analyzed by LC-MS/MS. Standard samples were prepared in the same manner using a blank matrix.
Samples were analyzed with the Prominence UPLC system (Shimadzu, Japan) equipped with an API 3200 QTRAP™ LC-MS/MS system (Applied Biosystems, Foster City, CA, USA). Sample volumes of 10 μL were injected into an Aquity HSS UPLC C18 column (2.5 × 100 mm, 1.8 µm i.d.; Waters, Milford, MA, USA) and maintained at 30 °C. The column was pre-equilibrated in 100% v/v solvent A (deionized water containing 0.1% v/v formic acid)/0% v/v solvent B (acetonitrile containing 0.1% v/v formic acid) at a flow rate of 0.3 mL/min. […] The samples were analyzed via multiple reaction monitoring. […]

[3] = system: CT26 cells expressing firefly luciferase (CT26-Fluc); assay: Orthotopic liver metastasis model (CT26-Fluc, intrasplenic injection); format: in vivo, BALB/c mice; settings: 5 or 10 mg/kg intraperitoneal
Experimental: Five-week-old male BALB/c mice with pathogen-free condition were obtained from Orient Company (Seongnam, Korea). According to the Guiding Principles in the Care and Use of Animals (DHEW publication, NIH 80–23), the handling of animals and all in vivo experiments were performed. The Chonnam National University Medical School Research Institutional Animal Care and Use Committee approved the experimental protocol.
A syngeneic mouse model of colorectal cancer metastasis to the liver was established by infusion of tumor cells into the portal system via intrasplenic injection. […] For optical live imaging in this model, a splenectomy was performed immediately after inoculation of tumor cell, and the firefly luciferase activity was analyzed at several time points with the Xenogen system. […] Weight of tumor was determined by subtracting the average weight of liver of normal mice (n = 4) from the weight of total tumor-bearing liver with addition of the weight of total extrahepatic tumors. […] To evaluate inhibition of tumor growth, mice were analyzed every 7 days with the use of optical imaging. […] Metastatic tumor nodules in the liver with a diameter of >1.0 mm were counted using a microscope, and a metastasis score was assigned based on nodule size as follows: 0 (no gross metastasis), 1 (tumor size >1 mm), and 10 (tumor size >5 mm). […]

[4] = Hydrolytic stability at pH 4–7; format: physicochemical; settings: pH range of 4–7, room temperature
Experimental: To determine whether the salt form of UA improved its bioavailability, the amount and concentration of usnate in the tumors, liver, and plasma of CT26 syngeneic tumor xenograft-bearing mice were measured by LC-MS/MS analysis. UA or KU was administered orally at a dose of 30 mg/kg at 7 days after CT26 cell inoculation, and the tumor tissues, liver tissues, and plasma of mice were collected after 16 h. […] Assuming that the density of tumor tissue is 0.1 to 1.0 mL/g, the concentration of usnate in tumor tissue is about 1.51 to 15.1 μM. Similarly, the amounts of usnate detected in liver tissues were 0.2788 ± 0.034 nmol/g of tissue for UA and 2.5789 ± 0.402 nmol/g of tissue for KU administered mice (Fig. 2C); the plasma concentrations of usnate were 0.181 ± 0.016 μM for UA and 1.690 ± 0.122 μM for KU administered mice (Fig. 2D).
Supplementary Figure 3. The stability of UA at the pH range of 4–7 in room temperature. (A) UA stability at pH 7.0. (B) UA stability at pH 6.8. (A) UA stability at pH 6.0. (A) UA stability at pH 4.5

[5] = system: Caco2, HCT116, and CT26 cells; assay: Cell invasion assay (Boyden chamber); format: cell-based, human; mouse (CT26); settings: 5 μM, 24 h, vs control
Experimental: Invasion assays were performed in Boyden chambers (Corning, New York, USA)[16]. A 120 μL Cells (2 × 10^6) suspended in medium (DMEM containing 0.2% BSA dissolved in PBS) treated with or without UA or KU were seeded in the upper transwell chamber (Corning, New York, USA) coated with gelatin. Then, fibronectin (10 μg/mL) was added into the lower chamber medium (400 μL) as a chemotactic agent.Then invaded cells adhering to the underneath of upper chamber were fixed and stained with the Diff Quik kit (Sysmex) after 24 h of incubation. The quantitation of the cells were performed under an upright microscope (5 fields/chamber). Each invasion assay was repeated in three independent experiments.

[6] = system: Twist, Snail, and Slug protein in Caco2 cells; assay: Western blotting of EMT markers in Caco2 cells; format: cell-based, human; settings: 24 h
Experimental: Cells treated with UA or KU for 24 h were washed twice with ice-cold PBS and lysed in lysisbuffer. Antibodies against E-cadherin (61018, BD Biosciences, San Diego, CA, USA), N-cadherin (610921, BD Biosciences), Snail/Slug (ab180714, Abcam, Cambridge, MA, USA), Twist (ab49254, Abcam), PARP (9542, Cell Signaling), Caspase-3 (9662, Cell Signaling), α-Tubulin (2125, Cell Signaling), and ZEB2 (HPA003456, Sigma) were detected with horseradish peroxidase-conjugated secondary antibody (Thermo Fisher Scientific, Waltham, MA, USA) with the use of Immobilon Western Chemiluminescent HRP Substrate Kit (Merck Millipore, Billerica, MA, USA) and luminescence imaging (Image Quant LAS 4000 mini). Multi-Gauge 3.0 was used to measure bands, and relative density was calculated based on the density of the α-tubulin bands in each sample. Expression of values were as arbitrary densitometric units corresponding to signal intensity.

[7] = system: CAPN1, CDC42, CFL1, IGF1, WASF1, and WASL in Caco2 cells; assay: Cell motility-related gene expression (RT2 profiler PCR / qRT-PCR) in Caco2 cells; format: cell-based, human; settings: same concentration for UA and KU
Experimental: The RT² Profiler™ PCR Array (330231, SA Biosciences, Qiagen, Courtaboeuf, France) was used to examine the expression patterns of 84 genes involved in human cell motility as previouslydescribed. The manufacturer’s instructions were strictly followed. Gene expression levels were analyzed using the web-based software ‘RT2 Profiler PCR Array Data Analysis version 3.5′. Six cell motility-related genes, including CAPN1, CDC42, CFL1, IGF1, WASF1, and WASL, were selected as candidates.
Quantitative RT-PCR (qRT-PCR) was performed as previously described. Briefly, total RNA ([…]) isolated from UA- or KU-treated Caco2 cells using RNAiso Plus (TaKaRa, Otsu, Shiga 520–2193, Japan) was used to synthesize cDNA using a M-MLV reverse transcriptase kit (Invitrogen, Carlsbad, CA, USA) and SYBR green (Enzynomics, Seoul, Korea). […]

[8] = Water solubility by μSol Method; format: physicochemical; settings: 25 °C, pH 7.4, μSol Method with DMSO stock solution
[9] = system: colorectal cancer cells (HCT116, DLD1, SW480, HT29, SW620, Caco2, COLO320, CT26); assay: Cell viability assay (MTT); format: cell-based, human; mouse (CT26); settings: 48 h, 12.5–100 μM
Experimental: The human colorectal cancer cell lines HCT116, DLD1, SW480, HT29, SW620, Caco2, and COLO320, and the mouse colorectal cancer cell line CT26, were used in this study. Cells were cultured in DMEM supplemented with 10% fetal bovine serum and 1% Penicillin-Streptomycin solution under a humidified 5% CO2 atmosphere at 37 °C in an incubator.
Colorectal cancer cell growth and survival were detected with the colorimetric quantification of 3-(4,5-dimethylthiazol-2-yl)-2,5-diphenyltetrazolium bromide using the MTT assay. Briefly, cells were seeded and cultured in 96-well plates (2.5 × 10^3 cells/well), and treated with UA or KU for 48 h. After DMSO dissolution, the absorbance at 540 nm was determined using a microplate reader with Gen 5 (2.03.1) software (BioTek Eon, VT, USA).

Usnic acid [UA]
mRNA levels of N-cadherin, Snail, Twist, Slug, and ZEB2 [1]: significantly decreased | amount of usnate in liver tissues [2]: 0.2788 ± 0.034 nmol/g of tissue | amount of usnate in tumor tissues [2]: undetectable | plasma concentration of usnate [2]: 181 ± 16 nM | inhibitory effect on metastasis in vivo [3]: no significant inhibitory effect on metastasis | metastasis score ([3]; six or ten times within 2 weeks, vs control): did not detect a statistically significant difference | hydrolytic stability [4]: consistent | number of invaded cells / invasion [5]: lower in the UA-treated groups than in the control groups | protein level of Twist, Snail, and Slug [6]: downregulated | expression of cell motility-related genes CAPN1, CDC42, CFL1, IGF1, WASF1, and WASL [7]: only CFL1 and IGF1 gene expression levels were decreased | water solubility [8]: 52.2 ± 2.90 μM and 17.7 ± 0.20 μg/mL | cytotoxic activity (cell viability) [9]: showed cytotoxic activity in all the tested colorectal cancer cells
